{"source": "patent EP2787958B1", "about": "“CHELIDONIUM MAJUS EXTRACTS AND THEIR USE IN THE TREATMENT OF SKIN DISORDERS AND PROMOTION OF SKIN REGENERATION” (priority 2011, dated 2013)", "key": {"interleukin 6 (IL-6)": {"tested_on": "interleukin 6 (IL-6)", "assay": "Inflammatory cytokines in cell supernatant (Mosaic ELISA microarray): IL-6", "type": "cell-based, Human", "conditions": "for IL-6 ng/(ml* No. of cells from photo) ± SD: 24 hours; for IL-6 production (effect in words): 1-10 µM"}, "interleukin 1β (IL-1β)": {"tested_on": "interleukin 1β (IL-1β)", "assay": "Inflammatory cytokines in cell supernatant (Mosaic ELISA microarray): IL-1β", "type": "cell-based, Human", "conditions": "for IL-1β ng/(ml* No. of cells from photo) ± SD: 24 hours; for IL-1β production (effect in words): 1-10 µM"}, "HDF cells [1]": {"tested_on": "HDF cells", "assay": "Summary of uses and toxic effects deduced from the cell assays (Table 1)", "type": "cell-based, Human", "how_it_was_run": "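HDF cells exposed to test substances at a given dosage for 24 h; uses and toxicity inferred from free-radical scavenging, mitochondrial dehydrogenase activity, IL-1β/IL-6 production (basal or induced by 100 µM H2O2), proliferation under standard growth conditions, and senescence-like morphology.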"}, "[2]": {"assay": "Anti-radical activity (decay of the DPPH radical)", "type": "biochemical", "conditions": "for Anti-radical (skin protective): 24 hours", "how_it_was_run": "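Test substance in ethanol mixed 1:1 with 200 µM DPPH (stock concentrations), in quadruplicate. Absorbance read at 530 nm after 30 min, with vitamin C and ethanol-only controls. IC50 from variable-slope Hill regression of dose-activity curves.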"}, "[3]": {"tested_on": "Human dermal fibroblasts (HDF)", "assay": "Mitochondrial dehydrogenase activity (WST-1 formazan assay) in HDF cells", "conditions": "for Revitalizing agent: 24 hours; for activity at 1 µM / activity at 7.3 µM: Homo sapiens, Fibroblast, read-out: % mitochondrial dehydrogenase activity ± SD", "protocol": "Human dermal fibroblasts were used for assay at the 3rd T75 passage.\nMitochondrial dehydrogenase activity was measured in HDF, HEK and HUVEC cells by means of the formazan assay, using the WST-1 kit from Roche Diagnostic in accordance with the supplier's instructions. Briefly: the reagent was added (10 µl per well), the incubation was carried out for a further 2 hours or 4 hours, and, at the end of this time, the absorbance was read for 1 s at a wavelength of 450 nm in a Perkin Elmer Victor 2 Wallac microplate reader.\nThe activity percentage (% mitochondrial dehydrogenase activity) is defined as: % mitochondrial dehydrogenase activity = ((absorbance of treated cells - absorbance of blank) / (absorbance of control - absorbance of blank)) x 100.\nThe tests were performed with observations after 18 hours, seeding 8,000 cells per well, and after 42 hours, seeding 2,000 cells per well. Furthermore, in order to better analyze the dose/response curves for dihydroberberine, canadine and stylopine, curves were collected at 11 concentrations by seeding 2,000 cells per well with 46 hours incubation.\nDose/response curves are plotted at 6 concentrations. The tests were performed with observations after 24 hours, seeding 8,000 cells per well."}, "[4]": {"tested_on": "collagen produced by HDF cells", "assay": "Quantity of collagen produced by the cells (elution of Sirius Red)"}, "HDF cells [5]": {"tested_on": "HDF cells", "assay": "Evaluation of cell proliferation (counting of Sirius Red stained cells in photographs)", "conditions": "24 hours"}, "[6]": {"conditions": "Dose 1 µm (coptisine: 1 pm [sic]), 24 hours"}, "[7]": {"conditions": "Dose 1 µm (coptisine: 1 pm [sic])"}}, "note": "Like-named read-outs stand apart in the source and are kept apart here."}
{"smiles": "COc1ccc2c(c1OC)CN1CCc3cc4c(cc3C1=C2)OCO4", "note": "[dihydroberberine]", "values": [{"measurement": "IL-6 ng/(ml* No. of cells from photo) ± SD", "setting": "interleukin 6 (IL-6); 1 µM, 34 ng/ml TGF-β1", "value": "512±25 ng/(ml* No. of cells from photo)"}, {"measurement": "IL-6 ng/(ml* No. of cells from photo) ± SD", "setting": "interleukin 6 (IL-6); 1 µM, 100 µM H2O2", "value": "1328±2 ng/(ml* No. of cells from photo)"}, {"measurement": "IL-6 ng/(ml* No. of cells from photo) ± SD", "setting": "interleukin 6 (IL-6); 1 µM, Standard conditions", "value": "541±24 ng/(ml* No. of cells from photo)"}, {"measurement": "IL-6 ng/(ml* No. of cells from photo) ± SD", "setting": "interleukin 6 (IL-6); 7.3 µM, 34 ng/ml TGF-β1", "value": "704±60 ng/(ml* No. of cells from photo)"}, {"measurement": "IL-6 ng/(ml* No. of cells from photo) ± SD", "setting": "interleukin 6 (IL-6); 7.3 µM, 100 µM H2O2", "value": "1685±444 ng/(ml* No. of cells from photo)"}, {"measurement": "IL-6 ng/(ml* No. of cells from photo) ± SD", "setting": "interleukin 6 (IL-6); 7.3 µM, Standard conditions", "value": "534±39 ng/(ml* No. of cells from photo)"}, {"measurement": "IL-6 production (effect in words)", "setting": "interleukin 6 (IL-6); 34 ng/ml TGF-β1", "value": "tendency to antagonise the stimulation of IL-6 induced by TGF-β1"}, {"measurement": "IL-6 production (effect in words)", "setting": "interleukin 6 (IL-6); 100 µM H2O2", "value": "significant effects in modulating IL-6 production"}, {"measurement": "IL-6 production (effect in words)", "setting": "interleukin 6 (IL-6); standard conditions", "value": "significant effects in modulating IL-6 production"}, {"measurement": "IL-1β ng/(ml* No. of cells from photo) ± SD", "setting": "interleukin 1β (IL-1β); 1 µM, 34 ng/ml TGF-β1", "value": "99±10 ng/(ml* No. of cells from photo)"}, {"measurement": "IL-1β ng/(ml* No. of cells from photo) ± SD", "setting": "interleukin 1β (IL-1β); 1 µM, 100 µM H2O2", "value": "164±1 ng/(ml* No. of cells from photo)"}, {"measurement": "IL-1β ng/(ml* No. of cells from photo) ± SD", "setting": "interleukin 1β (IL-1β); 1 µM, Standard conditions", "value": "108±1 ng/(ml* No. of cells from photo)"}, {"measurement": "IL-1β ng/(ml* No. of cells from photo) ± SD", "setting": "interleukin 1β (IL-1β); 7.3 µM, 34 ng/ml TGF-β1", "value": "129±1 ng/(ml* No. of cells from photo)"}, {"measurement": "IL-1β ng/(ml* No. of cells from photo) ± SD", "setting": "interleukin 1β (IL-1β); 7.3 µM, 100 µM H2O2", "value": "212±18 ng/(ml* No. of cells from photo)"}, {"measurement": "IL-1β ng/(ml* No. of cells from photo) ± SD", "setting": "interleukin 1β (IL-1β); 7.3 µM, Standard conditions", "value": "125±2 ng/(ml* No. of cells from photo)"}, {"measurement": "IL-1β production (effect in words)", "setting": "interleukin 1β (IL-1β); 34 ng/ml TGF-β1", "value": "antagonizes the stimulation of IL-1β induced by 34 ng/ml TGF-β1"}, {"measurement": "IL-1β production (effect in words)", "setting": "interleukin 1β (IL-1β); 100 µM H2O2", "value": "tendency to increase IL-1β production in a dose-dependent manner"}, {"measurement": "IL-1β production (effect in words)", "setting": "interleukin 1β (IL-1β); standard conditions", "value": "tendency to increase IL-1β production in a dose-dependent manner"}, {"measurement": "Cytotoxic", "setting": "HDF cells [1]", "value": "No"}, {"measurement": "Anti-fibrotic (prevention of scar formation, also from acne)", "setting": "HDF cells [1]; [6]", "value": "Yes (↓collagen)"}, {"measurement": "Cytoprotective (antioxidant, anti-inflammatory and anti-ageing; useful also in the treatment of acne)", "setting": "HDF cells [1]; [6]", "value": "No"}, {"measurement": "Wound-healing", "setting": "HDF cells [1]; [6]", "value": "No"}, {"measurement": "Anti-fibrotic (prevention of scar formation, also from acne)", "setting": "HDF cells [1]; Dose 7.3 µm, 24 hours", "value": "Yes (↓collagen)"}, {"measurement": "Cytoprotective (antioxidant, anti-inflammatory and anti-ageing; useful also in the treatment of acne)", "setting": "HDF cells [1]; Dose 7.3 µm, 24 hours", "value": "No"}, {"measurement": "Cytotoxic", "setting": "HDF cells [1]; Dose 7.3 µm, 24 hours", "value": "No"}, {"measurement": "Irritant", "setting": "HDF cells [1]; Dose 7.3 µm, 24 hours", "value": "Yes (↑IL-6, ↑IL-1β)"}, {"measurement": "Wound-healing", "setting": "HDF cells [1]; Dose 7.3 µm, 24 hours", "value": "No"}, {"measurement": "concentrations at which toxic (irritant) effects are shown", "setting": "HDF cells [1]; exposure for 24 hours", "value": "greater than or equal to 1 µM"}, {"measurement": "Irritant", "setting": "HDF cells [1]; human, 24 h, 1 µm", "value": "Yes (↑IL-6, ↑IL-1β)"}, {"measurement": "anti-radical effects (in words)", "setting": "[2]; 1 mM", "value": "shows anti-radical effects"}, {"measurement": "% DPPH activity", "setting": "[2]; 1 mM, 30 minutes", "value": 55, "unit": "%"}, {"measurement": "Anti-radical (skin protective)", "setting": "[2]; [7]", "value": "Yes"}, {"measurement": "Anti-radical (skin protective)", "setting": "[2]; Dose 7.3 µm", "value": "Yes"}, {"measurement": "IC50", "setting": "[2]; anti-radical activity, Hill equation", "value": 62, "unit": "µM"}, {"measurement": "concentrations below which no significant effects on mitochondrial dehydrogenase activity are shown", "setting": "[3]", "value": "below 0.1 µM"}, {"measurement": "mitochondrial dehydrogenase activity (effect in words)", "setting": "[3]; 100 µM", "value": "reduced"}, {"measurement": "mitochondrial dehydrogenase activity (effect in words)", "setting": "[3]; 1 and 10 µM, 18 h and 42 h, more marked at 42 h", "value": "increased with respect to the control"}, {"measurement": "Revitalizing agent", "setting": "[3]; [7]", "value": "Yes"}, {"measurement": "Revitalizing agent", "setting": "[3]; Dose 7.3 µm", "value": "Yes"}, {"measurement": "activity at 1 µM", "setting": "[3]; 18 h", "value": "131 ± 5.4", "unit": "%"}, {"measurement": "activity at 7.3 µM", "setting": "[3]; 18 h", "value": "128 ± 13.8", "unit": "%"}, {"measurement": "activity at 1 µM", "setting": "[3]; 42 h", "value": "143 ± 14.1", "unit": "%"}, {"measurement": "activity at 7.3 µM", "setting": "[3]; 42 h", "value": "137 ± 17.6", "unit": "%"}, {"measurement": "activity at 1 µM", "setting": "[3]; 46 h", "value": "121 ± 19.6", "unit": "%"}, {"measurement": "activity at 7.3 µM", "setting": "[3]; 46 h", "value": "192 ± 24.4", "unit": "%"}, {"measurement": "mitochondrial dehydrogenase activity (effect in words)", "setting": "[3]; fibroblast cells, higher doses", "value": "inhibit mitochondrial dehydrogenase activity"}, {"measurement": "mitochondrial dehydrogenase activity (effect in words)", "setting": "[3]; fibroblast cells, low dosage", "value": "stimulate mitochondrial dehydrogenase activity"}, {"measurement": "collagen production (effect in words)", "setting": "[4]; 1-10 µM (1 µM and 10 µM), 34 ng/ml TGF-β1", "value": "antagonizes the stimulation of collagen induced by 34 ng/ml TGF-β1"}, {"measurement": "collagen production (effect in words)", "setting": "[4]; 1-10 µM (1 µM and 10 µM), 100 µM H2O2", "value": "stimulates collagen production in a dose-dependent manner"}, {"measurement": "collagen production (effect in words)", "setting": "[4]; 1-10 µM, standard conditions", "value": "stimulates collagen production in a dose-dependent manner"}, {"measurement": "No. of cells from photo ± SD", "setting": "HDF cells [5]; 1 µM, 34 ng/ml TGF-β1", "value": "232±13"}, {"measurement": "No. of cells from photo ± SD", "setting": "HDF cells [5]; 1 µM, 100 µM H2O2", "value": "146±26"}, {"measurement": "No. of cells from photo ± SD", "setting": "HDF cells [5]; 1 µM, Standard conditions", "value": "160±18"}, {"measurement": "No. of cells from photo ± SD", "setting": "HDF cells [5]; 7.3 µM, 34 ng/ml TGF-β1", "value": "193±27"}, {"measurement": "No. of cells from photo ± SD", "setting": "HDF cells [5]; 7.3 µM, 100 µM H2O2", "value": "108±3"}, {"measurement": "No. of cells from photo ± SD", "setting": "HDF cells [5]; 7.3 µM, Standard conditions", "value": "129±13"}]}
